The results in this text go back to the supplement of paper PMC11061612.

Assay [1] relates to KYSE-140 (Esophageal Squamous Cell Carcinoma). The experiment in a line: combination Emax (second highest fraction inhibited in the dose matrix, 72 h); higher = more inhibition; extreme values may be limits of the assay. Put shortly:
(§1)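 After 24 hours at 37°C and 5% CO2 in 1536-well plates, cells in DMEM/F12 or RPMI plus 10% FBS received two-drug dose matrices for 72 hours. Viability came from CellTiter-Glo 2.0 luminescence and was scaled as inhibition, anchored at 0 by vehicle wells and at 1 by blank wells. Combination Emax is taken as the second-highest inhibition in the matrix, and Bliss excess as the observed combination effect less EA + EB − EA·EB, with EA and EB the single-agent effects.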

A further assay relates to RH-41 (Rhabdomyosarcoma). The assay is described as above. A digest of the protocol:
as §1

Assay [2] has as its system MHH-ES-1 (Ewing's Sarcoma). The assay is described as above. A digest of the protocol:
as §1

The test system of assay [3] is G-402 (Other Solid Carcinomas). The assay is described as above. A digest of the protocol:
as §1

In assay [4] the test system is HCC70 (Breast Carcinoma). The description is as above. A digest of the protocol: as §1
In assay [5] the test system is JVM-2 (B-Cell Non-Hodgkin's Lymphoma). Described as above. Put shortly:
as §1

The subject of assay [6] is CA46 (Burkitt's Lymphoma). The assay is described as above. Put shortly: as §1
In assay [7] the test system is SK-HEP-1 (Hepatocellular Carcinoma). The assay is described as above. A digest of the protocol:
as §1

The test system of assay [8] is DU-4475 (Breast Carcinoma). The description is as above. Put shortly: as §1
The subject of assay [9] is NCI-H2087 (Lung Adenocarcinoma). The description is as above. A digest of the protocol: as §1
The test system of assay [10] is HCC1428 (Breast Carcinoma). The assay is described as above. Put shortly: as §1
In assay [11] the test system is CAL-27 (Oral Cavity Carcinoma). The assay is described as above. A digest of the protocol:
as §1

For assay [12], the system named is CESS (Acute Myeloid Leukemia). The assay is described as above. A digest of the protocol: as §1
In the next assay the test system is EB2 (Burkitt's Lymphoma). Described as above. A digest of the protocol:
as §1

A further assay relates to IM-9 (Non-Cancerous). Described as above. Put shortly:
as §1

Assay [13] has as its system HT55 (Colorectal Carcinoma). The experiment in a line: Bliss excess, mean over the matrix (fraction); higher = more synergy. A digest of the protocol:
as §1

The test system of assay [14] is HCC70 (Breast Carcinoma). The description is as above. A digest of the protocol: as §1
The test system of assay [15] is OACp4C (Esophageal Adenocarcinoma). The description is as above. A digest of the protocol: as §1
The subject of assay [16] is JHU-022 (Oral Cavity Carcinoma). Described as above. A digest of the protocol: as §1
The subject of assay [17] is NCI-H2228 (Lung Adenocarcinoma). The description is as above. A digest of the protocol: as §1
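Throughout, for Bliss excess, mean over the matrix: after 72 h of two-drug dosing.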

In the case of `COc1nnc2ccc(N3CCC(c4ccc(OCCN5CCN(C)C(=O)[C@H]5C)cc4)CC3)nn12` [AZD5153] + C[C@@H]1COCCN1C2=NC(=NC(=C2)C3(CC3)[S@](=N)(=O)C)C4=C5C=CNC5=NC=C4 [AZD6738] (first compound max 1 µM, 7x7, partner max 10 µM), the “combination Emax” value in assay [1] was 0.821; in the assay on RH-41 (Rhabdomyosarcoma) it was 0.99; in assay [2], 0.812; in assay [3], 0.941; with HCC70 (Breast Carcinoma) [4], 0.659; in [5], 0.825. Further, the “combination Emax” value in assay [6] was 0.754; in assay [7], 0.406; in assay [8], 1; in [9], 0.728; in assay [10], 0.732; in assay [11], 0.659. In addition, the “combination Emax” value in [12] stood at 0.905; in the assay with EB2 (Burkitt's Lymphoma) it was 0.764; in the assay with IM-9 (Non-Cancerous) it was 0.963. In addition, the Bliss excess is 0.0392 in assay [13]; 0.015 with HCC70 (Breast Carcinoma) [14]; 0.0085 in assay [15]; -0.0134 in assay [16]; -0.0179 in [17].

As for `NC1(C(=O)N[C@@H](CCO)c2ccc(Cl)cc2)CCN(c2ncnc3[nH]ccc23)CC1` [Capivasertib] + CC(=O)c1c(C)c2cnc(Nc3ccc(N4CCNCC4)cn3)nc2n(C2CCCC2)c1=O [Palbociclib] (first compound max 10 µM, 7x7, partner max 10 µM), the “combination Emax” value in assay [1] was found to be 0.78; in the assay with RH-41 (Rhabdomyosarcoma) it was 0.945; in assay [2] it was 0.5; in assay [3] it was 0.605; in the assay with HCC70 (Breast Carcinoma) [4], 0.657; in assay [5], 0.823. The “combination Emax” value was 0.411 in assay [6]; 0.673 in assay [7]; 0.295 in [8]; 0.244 in assay [9]; 0.18 in assay [10]; 0.69 in assay [11]. Also, the “combination Emax” value in assay [12] is 0.708; in the assay on EB2 (Burkitt's Lymphoma), 0.566; in the assay with IM-9 (Non-Cancerous) it was 0.706. For the same compound, the Bliss excess in assay [13] is -0.0186; with HCC70 (Breast Carcinoma) [14], 0.0198; in assay [15], -0.0239; in assay [16] it was -0.0186; in assay [17], -0.0216.

On to `CC(=O)c1c(C)c2cnc(Nc3ccc(N4CCNCC4)cn3)nc2n(C2CCCC2)c1=O` [Palbociclib] + CC1(C)CCC(CN2CCN(c3ccc(C(=O)NS(=O)(=O)c4ccc(NCC5CCOCC5)c([N+](=O)[O-])c4)c(Oc4cnc5[nH]ccc5c4)c3)CC2)=C(c2ccc(Cl)cc2)C1 [Venetoclax] (first compound max 10 µM, 7x7, partner max 1 µM), for which the “combination Emax” value worked out at 0.199 in assay [1]; 0.329 in the assay with RH-41 (Rhabdomyosarcoma); 0.401 in assay [2]; 0.442 in [3]; 0.0684 in the assay on HCC70 (Breast Carcinoma) [4]; 0.762 in assay [5]. Besides, the “combination Emax” value in assay [6] amounted to 0.355; in assay [7] it was 0.621; in assay [8], 0.153; in assay [9], 0.0514; in [10], 0.0427; in assay [11], 0.0994. Moreover, the “combination Emax” value amounted to 0.651 in [12], 0.448 in the assay with EB2 (Burkitt's Lymphoma) and 0.776 in the assay on IM-9 (Non-Cancerous). In addition, the Bliss excess was 0.0107 in assay [13]; -0.0356 with HCC70 (Breast Carcinoma) [14]; -0.0167 in assay [15]; -0.0613 in assay [16]; 0.005 in assay [17].

For the compound `COc1nnc2ccc(N3CCC(c4ccc(OCCN5CCN(C)C(=O)[C@H]5C)cc4)CC3)nn12` [AZD5153] + CCN(CCO)CCCOc1ccc2c(Nc3cc(CC(=O)Nc4cccc(F)c4)[nH]n3)ncnc2c1 [AZD2811] (first compound max 1 µM, 7x7, partner max 1 µM), the “combination Emax” value in assay [1] amounted to 0.626; in the assay with RH-41 (Rhabdomyosarcoma), 0.888; in assay [2], 0.762; in assay [3], 0.825; with HCC70 (Breast Carcinoma) [4], 0.459; in assay [5], 0.729. In addition, the “combination Emax” value in [6] came out at 0.652; in assay [7], 0.41; in assay [8], 0.944; in assay [9] it was 0.351; in [10], 0.701; in assay [11], 0.646. Moreover, the figures for the “combination Emax” value (in assay [12]; in the assay on EB2 (Burkitt's Lymphoma); in the assay on IM-9 (Non-Cancerous)) were 0.648, 0.589 and 0.897, respectively. Also, the Bliss excess is -0.0479 in assay [13]; -0.0734 in the assay with HCC70 (Breast Carcinoma) [14]; -0.062 in assay [15]; -0.0601 in assay [16]; -0.0285 in assay [17].

For `NC1(C(=O)N[C@@H](CCO)c2ccc(Cl)cc2)CCN(c2ncnc3[nH]ccc23)CC1` [Capivasertib] + CC(C)n1c(=O)n(C)c2cnc3cc(F)c(-c4ccc(OCCCN5CCCCC5)nc4)cc3c21 [AZD1390] (first compound max 10 µM, 7x7, partner max 0.3 µM), the “combination Emax” value in [1] was determined as 0.732; with RH-41 (Rhabdomyosarcoma), 0.921; in assay [2] it was 0.354; in [3], 0.398; in the assay on HCC70 (Breast Carcinoma) [4] it was 0.707; in assay [5], 0.707. The “combination Emax” value worked out at 0.23 in assay [6]; 0.318 in [7]; 0.331 in [8]; 0.206 in assay [9]; 0.186 in [10]; 0.321 in [11]. Besides, the “combination Emax” value in assay [12] worked out at 0.456; in the assay with EB2 (Burkitt's Lymphoma) it was 0.61; in the assay on IM-9 (Non-Cancerous), 0.577. For the same compound, the Bliss excess is -0.0432 in [13]; -0.023 in the assay on HCC70 (Breast Carcinoma) [14]; -0.0479 in assay [15]; -0.0564 in assay [16]; -0.0728 in [17].

`COc1nnc2ccc(N3CCC(c4ccc(OCCN5CCN(C)C(=O)[C@H]5C)cc4)CC3)nn12` [AZD5153] + C=CCn1c(=O)c2cnc(Nc3ccc(N4CCN(C)CC4)cc3)nc2n1-c1cccc(C(C)(C)O)n1 [AZD1775] (first compound max 1 µM, partner max 1 µM): the “combination Emax” value is 0.832 in assay [1]; 0.996 with RH-41 (Rhabdomyosarcoma); 0.764 in [2]; 0.85 in assay [3]; 0.44 with HCC70 (Breast Carcinoma) [4]; 0.897 in [5]. For the same compound, the “combination Emax” value in assay [6] was 0.744; in [7], 0.312; in assay [8], 1; in assay [9] it was 0.627; in assay [10] it was 0.718; in assay [11], 0.63. In addition, the “combination Emax” value in assay [12] came to 0.941; in the assay with EB2 (Burkitt's Lymphoma), 0.796; in the assay with IM-9 (Non-Cancerous), 0.975. Moreover, the Bliss excess is -0.0112 in assay [13]; -0.0339 with HCC70 (Breast Carcinoma) [14]; -0.0295 in assay [15]; -0.0698 in assay [16]; -0.0784 in assay [17].
